{
  "source": "patent US10149481B2",
  "about": "“Arthropod control compositions and methods” (Tyratech, Inc., priority 2012, dated 2018)",
  "origin": "cited, not measured here",
  "key": {"[1]": {"conditions": "for mammalian toxicity: Nentwig 2003, Frances 2007b, Moore and Debboun 2007"}, "[2]": {"system": "D. variabilis", "conditions": "2 h after application, unformulated (Kimps et al. 2011)"}},
  "data": [
    {"molecule": "CC1CCC(C(C)(C)O)C(O)C1", "note": "(centres unmarked) [PMD, p-menthane-3,8-diol]", "values": [
      {"measurement": "eye irritation", "setting": "[1]; Strickman 2007", "result": "exceptionally irritating to the eyes"},
      {"measurement": "rat oral and rabbit dermal toxicity", "setting": "[1]; Strickman 2007", "result": "low"}
    ]},
    {"molecule": "CCCCCCCCCC(C)=O", "note": "[2-undecanone]", "values": [
      {"measurement": "repellency", "setting": "[2]", "result": 74, "unit": "%"}
    ]},
    {"molecule": "CCCCN(CCC(=O)OCC)C(C)=O", "note": "[IR3535, 3-(N-Butyl-N-acetyl)-amino propionic acid ethyl ester]", "values": [
      {"measurement": "mammalian toxicity", "setting": "[1]", "result": "low mammalian toxicity"}
    ]},
    {"molecule": "Picaridin", "values": [
      {"measurement": "mammalian toxicity", "setting": "[1]", "result": "low mammalian toxicity"}
    ]}
  ]
}
